The test system of this assay is luciferase expression in the liver. The experiment in a line: In vivo luciferase mRNA expression rodent model (lipid nanoparticle formulations of cationic lipids). Also on record: species or system mice. The note with it: luciferase expression in liver 4 hours after tail vein injection; LNP 50% cationic lipid/10% DSPC/38.5% cholesterol/1.5% PEG-DMA; MC3 activity=1. The method, then: Cationic lipid (MC3), DSPC, cholesterol and PEG-lipid were solubilized in ethanol at a molar ratio of 50:10:38.5:1.5. Lipid nanoparticles (LNP) were prepared at a total lipid to mRNA weight ratio of approximately 10:1 to 30:1. Briefly, the mRNA was diluted to 0.2 mg/mL in 10 to 50 mM citrate buffer, pH 4. Syringe pumps were used to mix the ethanolic lipid solution with the mRNA aqueous solution at a ratio of about 1:5 to 1:3 (vol/vol) with total flow rates above 15 mL/min. The ethanol was then removed and the external buffer replaced with PBS by dialysis. Finally, the lipid nanoparticles were filtered through a 0.2 μm pore sterile filter. Lipid nanoparticle particle size was approximately 55-95 nm diameter, and in some instances approximately 70-90 nm diameter as determined by quasi-elastic light scattering using a Malvern Zetasizer Nano ZS (Malvern, UK) or by using a Nicomp 370 submicron particle sizer (Santa Barbara, CA).
Studies were performed in 6-8 week old female C57BL/6 mice (Charles River) 8-10 week old CD-1 (Harlan) mice (Charles River) according to guidelines established by an institutional animal care committee (ACC) and the Canadian Council on Animal Care (CCAC). Varying doses of mRNA-lipid nanoparticle were systemically administered by tail vein injection and animals euthanized at specific time points (1, 2, 4, 8 and 24 hrs) post-administration. Liver and spleen were collected in pre-weighed tubes, weights determined, immediately snap frozen in liquid nitrogen and stored at −80° C. until processing for analysis.
For liver, approximately 50 mg was dissected for analyses in a 2 mL FastPrep tubes (MP Biomedicals, Solon OH). ¼″ ceramic sphere (MP Biomedicals) was added to each tube and 500 μL of Glo Lysis Buffer—GLB (Promega, Madison WI) equilibrated to room temperature was added to liver tissue. Liver tissues were homogenized with the FastPrep24 instrument (MP Biomedicals) at 2×6.0 m/s for 15 seconds. Homogenate was incubated at room temperature for 5 minutes prior to a 1:4 dilution in GLB and assessed using SteadyGlo Luciferase assay system (Promega). Specifically, 50 μL of diluted tissue homogenate was reacted with 50 μL of SteadyGlo substrate, shaken for 10 seconds followed by 5 minute incubation and then quantitated using a CentroXS^3 LB 960 luminometer (Berthold Technologies, Germany). The amount of protein assayed was determined by using the BCA protein assay kit (Pierce, Rockford IL). Relative luminescence units (RLU) were then normalized to total μg protein assayed. To convert RLU to ng luciferase a standard curve was generated with QuantiLum Recombinant Luciferase (Promega). Based on the data provided in FIG. 1, the four-hour time point was chosen for efficacy evaluation of the lipid formulations (see Example 3). […]

In the case of `CCCCCCCCC(CCCCCC)COC(=O)CCCCCCCCCCCC(CCCCCCCCCCCC(=O)OCC(CCCCCC)CCCCCCCC)OC(=O)CCCN(C)C` (stereo not shown) [Compound 2, 1,25-di-(2′-hexyldecyl)13-{[4-(dimethylamino)butanoyl]oxy}pentacosanedioate], the “Activity Relative to MC3” value is on record as around 0.75. With `CCCCCCCCC(CCCCCC)C(=O)OCCCCCCCCCC(CCCCCCCCCOC(=O)C(CCCCCC)CCCCCCCC)OC(=O)CCCN(C)C` (stereo not shown) [Compound 1, 10-{[4′-(dimethylamino)butanoyl]oxy}-19-[(2-hexyldecanoyl)oxy]nonadecyl 2-hexyldecanoate] the figure was around 2. For `CCCCC/C=C\C/C=C\CCCCCCCCC(CCCCCCCC/C=C\C/C=C\CCCCC)OC(=O)CCCN(C)C` [MC3, reference compound] the value was 1; for `CCCCCCCCC(CCCCCC)C(=O)OCCCCCCCCCC(CCCCCCCCCOC(=O)C(CCCCCC)CCCCCCCC)OC(=O)CCCCN(C)C` (stereo not shown) [Compound 3, 10-{[5-(dimethylamino)pentanoyl]oxy}-19-[(2-hexyldecanoyl)oxy]nonadecyl 2-hexyldecanoate], around 8.

The record behind these values is patent US12678515B2, “Lipids and lipid nanoparticle formulations for delivery of nucleic acids” (Acuitas Therapeutics, Inc., priority 2015, dated 2026).
